From publication PMC9169222, “Impedance-Based Phenotypic Readout of Transporter Function: A Case for Glutamate Transporters” (Frontiers in Pharmacology, 2022)
Counter-ions that a name gives are not always drawn. Like-named read-outs stand apart in the source and are kept apart here.

Key:
[1] = molecular target: T1, EAAT1 (JumpIn-EAAT1-mock cells) (Homo sapiens, UniProt P43003); assay: Impedance-based TRACT assay (xCELLigence) on mock-transfected JumpIn-EAAT1 cells; format: cell-based; conditions: no inhibitor
T1 construct: expressed in transfected cells; host or cells: Jump In T-REx HEK 293
Protocol: In short, cells are cultured in medium on gold-plated electrodes in microwell E-plates.
Assays were performed at 37°C and 5% CO2 in 96-well PET E-plates in a total volume of 100 µl per well. Prior to cell seeding, the baseline impedance (Z0) was measured in the recording station in 40 µl (two compound additions) or 45 µl (one compound addition) medium in the presence (+) or absence (−) of 1 μg/ml dox. All compounds were diluted in phosphate-buffered saline (PBS) and added in 5 µl per addition using a VIAFLO 96 handheld electronic 96 channel pipette (INTEGRA Biosciences, Tokyo, Japan). When DMSO was used as a solvent for a compound, the final amount of DMSO was kept at 0.1% per well and was included in the vehicle (PBS/DMSO). All conditions were tested at two technical replicates per plate.
Transiently transfected JumpIn-EAAT1 cells were detached using only PBS/EDTA. The E-plate was left to rest at room temperature for 30 min prior to replacement in the recording station at 37°C and 5% CO2. Cell growth was recorded overnight for 22 h. If a pretreatment was required for the experiment, the cells were pretreated after 22 h with either a concentration of inhibitor or vehicle (PBS/DMSO) and cells were monitored for 60 min. For GPCR antagonist experiments, a maximum concentration of LY341495 (1 µM) was used. […] After the pretreatment, cells were stimulated with substrate or vehicle (PBS). […] After stimulation the impedance was measured for at least 2 h. […] Properly washed plates were re-used up to two times.
Experimental data was recorded using RTCA Software v2.0 or v2.1.1 (ACEA Biosciences). In the RTCA Software CI values were normalized to the time point prior to substrate/agonist stimulation resulting in normalized Cell Index (nCI) values. The nCI data were exported and subsequent analyses and data visualizations were done using GraphPad Prism v9 (GraphPad Software, San Diego, CA, United States). […] The potency values of substrates and inhibitory potencies of EAAT inhibitors were determined by fitting the net AUC data to a sigmoidal concentration-effect curve with a variable slope.

[2] = molecular target: T2, EAAT5 (JumpIn-EAAT5 cells) (Homo sapiens, UniProt O00341); assay: Impedance-based phenotypic assay on JumpIn-EAAT5 cells; format: cell-based; conditions: JumpIn-EAAT5, 1 mM L-glu, p = 0.0032
T2 construct: expressed in transfected cells; host or cells: Jump In T-REx HEK 293
Protocol: Label-free whole-cell assays, based on cell-induced changes in impedance, were performed using the xCELLigence real-time cell analyzer (RTCA) system (ACEA Biosciences, San Diego, CA, United States) as described previously ([Vlachodimou et al., 2019]; [Sijben et al., 2021a], [2021b]). In short, cells are cultured in medium on gold-plated electrodes in microwell E-plates. Per well impedance is continuously measured at 10 kHz and is converted to the unitless parameter Cell Index (CI) by the following formula: CI=(Zi−Z0)Ω/15Ω where Zi is the impedance at any given time point and Z0 is the baseline impedance measured at the start of each experiment ([Kho et al., 2015]).
Assays were performed at 37°C and 5% CO2 in 96-well PET E-plates in a total volume of 100 µl per well. Prior to cell seeding, the baseline impedance (Z0) was measured in the recording station in 40 µl (two compound additions) or 45 µl (one compound addition) medium in the presence (+) or absence (−) of 1 μg/ml dox. […]
On the day of the experiment, JumpIn-EAAT cells grown to 70–80% confluence were trypsinized (0.25% trypsin in PBS/EDTA), counted and seeded in the E-plate in a volume of 50 μl at 60,000 cells/well. […] Cell growth was recorded overnight for 22 h. […] After stimulation the impedance was measured for at least 2 h. […]
Experimental data was recorded using RTCA Software v2.0 or v2.1.1 (ACEA Biosciences). […]

T1 sequence (P43003 whole entry, the tested form may be a part): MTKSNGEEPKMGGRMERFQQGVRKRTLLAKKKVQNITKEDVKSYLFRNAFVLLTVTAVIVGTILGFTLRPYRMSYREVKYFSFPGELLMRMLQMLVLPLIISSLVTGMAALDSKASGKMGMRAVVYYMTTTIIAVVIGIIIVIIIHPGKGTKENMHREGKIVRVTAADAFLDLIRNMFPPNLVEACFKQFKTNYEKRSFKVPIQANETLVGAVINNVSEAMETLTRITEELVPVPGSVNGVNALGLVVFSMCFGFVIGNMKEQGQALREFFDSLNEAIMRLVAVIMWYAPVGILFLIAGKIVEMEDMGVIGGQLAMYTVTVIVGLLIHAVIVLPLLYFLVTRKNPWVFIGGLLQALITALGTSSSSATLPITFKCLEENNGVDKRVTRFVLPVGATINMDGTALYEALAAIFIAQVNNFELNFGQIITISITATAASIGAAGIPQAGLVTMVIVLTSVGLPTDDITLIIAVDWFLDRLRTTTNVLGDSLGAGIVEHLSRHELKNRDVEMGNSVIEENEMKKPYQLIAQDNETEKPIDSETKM
T2 sequence (O00341 whole entry): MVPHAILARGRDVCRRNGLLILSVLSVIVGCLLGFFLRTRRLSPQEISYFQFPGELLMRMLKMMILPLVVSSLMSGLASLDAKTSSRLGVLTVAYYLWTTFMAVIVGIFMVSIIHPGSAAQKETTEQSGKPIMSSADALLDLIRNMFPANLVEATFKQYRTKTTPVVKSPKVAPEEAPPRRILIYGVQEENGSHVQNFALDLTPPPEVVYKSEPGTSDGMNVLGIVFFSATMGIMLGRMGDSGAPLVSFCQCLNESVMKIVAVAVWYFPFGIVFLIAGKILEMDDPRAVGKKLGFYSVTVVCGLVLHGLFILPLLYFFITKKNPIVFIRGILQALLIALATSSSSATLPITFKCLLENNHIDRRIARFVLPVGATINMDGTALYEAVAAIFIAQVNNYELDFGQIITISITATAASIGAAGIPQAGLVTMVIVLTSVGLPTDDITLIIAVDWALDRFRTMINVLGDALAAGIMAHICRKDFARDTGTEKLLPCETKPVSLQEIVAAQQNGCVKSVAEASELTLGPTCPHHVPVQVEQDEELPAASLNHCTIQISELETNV

For `N[C@@H](CCC(=O)O)C(=O)O` [L-glutamate, L-glutamic acid monosodium salt monohydrate], which EC50 ([1]; +dox, net AUC 0–15 min, read-out: Substrate pEC50 ± SEM (AUC = 0–15 min) (converted)) is on record?
The EC50 was greater than 1000 µM.

And the EC50 ([1]; +dox, net AUC 0–120 min, read-out: Substrate pEC50 ± SEM (AUC = 0–120 min) (converted))?
Its EC50 is 316 µM.

What about the EC50 ([1]; Substrate pEC50 ± SEM (AUC = 0–120 min), −dox, net AUC 0–120 min) of the same molecule?
Its EC50 is 100 µM.

What about the “Response in dox-induced vs non-induced cells” value [2] of the same molecule?
The value was “significantly higher”.
